Measurements: patent US20250332173A1, “COMPOUNDS AND METHODS FOR MODULATING NUCLEIC ACID SPLICING” (REMIX THERAPEUTICS INC., priority 2021, published 2025)
Read-outs that look alike come from different tables or passages of the source.

Experiments:
[1] = tested on: HTT mRNA; assay: RT-qPCR splicing assay, HTT canonical junction (CJ) and alternative junction (AJ) mRNA; assay type: cell-based, human; conditions: Homo sapiens; for AC50: increase in HTT alternative junction (AJ) mRNA, read-out: HTT AJ AC50
Summary of the method: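 A673 cells (normalized to PPIA) or K562 cells (normalized to GAPDH or GUSB) were treated 24 h at 37 °C with an 11-point 3-fold dilution series, top 10 uM, DMSO ≤0.25%. Cell lysates went to one-step RT-qPCR measuring canonical- and alternative-junction MYB or HTT transcripts.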

[2] = tested on: SMN2 mRNA; assay: RT-qPCR splicing assay, SMN2 canonical junction (CJ) mRNA; assay type: cell-based, human; conditions: Homo sapiens; Table 5 panel; canonical junction qPCR; compound concentration having 50% response in CJ decrease; read-out: SMN2 IC50 (decrease in CJ mRNA levels)
Summary of the method: (§1)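 Canonical-junction transcript levels in compound-treated A673 or K562 cells (24 h, up to 10 uM final) were determined from lysates by RT-qPCR with housekeeping-gene normalization.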

[3] = tested on: Target C; assay: RT-qPCR splicing assay panel, Target C canonical junction (CJ) mRNA; assay type: cell-based, human; conditions: Homo sapiens; Table 5 panel; canonical junction qPCR; compound concentration having 50% response in CJ decrease; read-out: Target C IC50 (decrease in CJ mRNA levels)
Summary of the method: as §1

[4] = tested on: K562 (human chronic myelogenous leukemia) cells; assay: Cell Titer Glo 2.0 cell viability assay; assay type: cell-based; conditions: Homo sapiens, K562, 72 h, K562 cells, 72 hours, Cell Titer Glo 2.0; read-out: K562 GI50
[5] = decrease in HTT canonical junction (CJ) mRNA, RT-qPCR, read-out: HTT CJ IC50
[6] = Table 5 panel, canonical junction qPCR, compound concentration having 50% response in CJ decrease, read-out: HTT IC50 (decrease in CJ mRNA levels)

Row | SMILES | IC50 [1, 5] | IC50 [1, 6] | IC50 [2] | IC50 [3] | GI50 [4] | AC50 ([1]; RT-qPCR)
1 | Cc1cn2cc(-c3cc(F)c4c(=O)n([C@H]5CCNC5)ccc4c3)cc(F)c2n1 (single isomer, unassigned) [Compound 396] | 1 to 10 µM | 1 to 10 µM | < 0.1 µM | > 10 µM | 0.1 to 1 µM | 1 to 10 µM
2 | Cc1cn2cc(-c3ccc4c(=O)n([C@@H]5CCCNC5)ccc4c3)cc(F)c2n1 (single isomer, unassigned) [Compound 403] | 1 to 10 µM | 1 to 10 µM | < 0.1 µM | 1 to 10 µM | 1 to 10 µM | 1 to 10 µM
3 | Cc1cn2nc(-c3cc(F)c4c(=O)n([C@H]5CCNC6(CC6)C5)ccc4c3)cc(C)c2n1 (single isomer, unassigned) [Compound 426] | < 0.1 µM | < 0.1 µM | < 0.1 µM | < 0.1 µM | < 0.1 µM | < 0.1 µM
4 | Cc1cn2nc(-c3ccc4c(=O)n([C@@H]5CCNC6(CC6)C5)ncc4c3)cc(C)c2n1 (stereo in doubt) [Compound 368, 2-[(7R)-4-azaspiro[2.5]octan-7-yl]-6-{2,8-dimethylimidazo[1,2-b]pyridazin-6-yl}phthalazin-1-one] | < 0.1 µM | < 0.1 µM | < 0.1 µM | 0.1 to 1 µM | 0.1 to 1 µM | < 0.1 µM
5 | Cc1cn2nc(-c3cc(F)c4c(=O)n(C5CCNC5)ccc4c3)cc(C)c2n1 (stereo in doubt) [Compound 382, (R)-6-(2,8-dimethylimidazo[1,2-b]pyridazin-6-yl)-8-fluoro-2-(pyrrolidin-3-yl)isoquinolin-1(2H)-one] | 1 to 10 µM | 1 to 10 µM | < 0.1 µM | > 10 µM | 1 to 10 µM | 1 to 10 µM
6 | Cc1cn2nc(-c3cc(C)c4c(=O)n(C5CCNC6(CC6)C5)ccc4c3)cc(C)c2n1 (stereo in doubt) [Compound 397, (S)-6-(2,8-dimethylimidazo[1,2-b]pyridazin-6-yl)-8-methyl-2-(4-azaspiro[2.5]octan-7-yl)isoquinolin-1(2H)-one] | < 0.1 µM | < 0.1 µM | < 0.1 µM | 0.1 to 1 µM | 0.1 to 1 µM | < 0.1 µM
7 | Cc1cn2nc(-c3ccc4c(=O)n(C5CCCNC5)ccc4c3)cc(C)c2n1 (stereo in doubt) [Compound 410, 6-{2,8-dimethylimidazo[1,2-b]pyridazin-6-yl}-2-[(3S)-piperidin-3-yl]isoquinolin-1-one] | 1 to 10 µM | 1 to 10 µM | < 0.1 µM | > 10 µM | 1 to 10 µM | 1 to 10 µM
8 | Cc1cn2nc(-c3ccc4c(=O)n(C5CCCNC5)ccc4c3)cc(C)c2n1 (stereo in doubt) [Compound 411, 6-{2,8-dimethylimidazo[1,2-b]pyridazin-6-yl}-2-[(3R)-piperidin-3-yl]isoquinolin-1-one] | 1 to 10 µM | 1 to 10 µM | 0.1 to 1 µM | > 10 µM | 1 to 10 µM | 1 to 10 µM
9 | Cc1cn2cc(-c3cc(F)c4c(=O)n(C5CCOC5)cnc4c3)cc(C#N)c2n1 (stereo in doubt) [Compound 499, (R)-6-(5-fluoro-4-oxo-3-(tetrahydrofuran-3-yl)-3,4-dihydroquinazolin-7-yl)-2-methylimidazo[1,2-a]pyridine-8-carbonitrile] | 0.1 to 1 µM | 0.1 to 1 µM | 0.1 to 1 µM | 0.1 to 1 µM | 0.1 to 1 µM | 0.1 to 1 µM
10 | Cc1cn2cc(-c3cc(F)c4c(=O)n(C5CCOC5)cnc4c3)cc(C#N)c2n1 (stereo in doubt) [Compound 500, (S)-6-(5-fluoro-4-oxo-3-(tetrahydrofuran-3-yl)-3,4-dihydroquinazolin-7-yl)-2-methylimidazo[1,2-a]pyridine-8-carbonitrile] | 0.1 to 1 µM | 0.1 to 1 µM | 0.1 to 1 µM | 0.1 to 1 µM | 0.1 to 1 µM | 0.1 to 1 µM
11 | Cn1cc2cc(-n3cnc4cc(C5=CC6CCC(C5)N6)ccc4c3=O)ccc2n1 (centres unmarked) [Compound 160] | > 10 µM | > 10 µM | > 10 µM | > 10 µM | > 10 µM | > 10 µM
12 | CN1C2C=C(c3ccc4c(=O)n(-c5ccc6nn(C)cc6c5)cnc4c3)CC1CC2 (centres unmarked) [Compound 161] | > 10 µM | > 10 µM | > 10 µM | > 10 µM | > 10 µM | > 10 µM
13 | CN1CCC(Nc2ccc3c(=O)n(-c4ccc5nn(C)cc5c4)cnc3c2)CC1 [Compound 163] | > 10 µM | > 10 µM | > 10 µM | > 10 µM | > 10 µM | > 10 µM
14 | Cn1cc2cc(-n3cnc4cc(C5CCNCC5)ccc4c3=O)ccc2n1 [Compound 172] | > 10 µM | > 10 µM | > 10 µM | > 10 µM | 1 to 10 µM | > 10 µM
15 | Cc1cc(-c2ccc3c(=O)n(C4CCN(C)CC4)cnc3n2)cc2cn(C)nc12 [Compound 173] | > 10 µM | > 10 µM | 1 to 10 µM | – | 1 to 10 µM | > 10 µM
16 | Cc1cc(-c2ccc3c(=O)n(C4CCNCC4)cnc3c2)cc2cn(C)nc12 [Compound 174] | 0.1 to 1 µM | 0.1 to 1 µM | < 0.1 µM | – | 0.1 to 1 µM | 0.1 to 1 µM
17 | Cc1cn2cc(-c3cc(N)c4c(=O)n(C5CCNCC5)cnc4c3)cc(C#N)c2n1 [Compound 364, 6-[5-amino-4-oxo-3-(piperidin-4-yl)quinazolin-7-yl]-2-methylimidazo[1,2-a]pyridine-8-carbonitrile] | > 10 µM | > 10 µM | > 10 µM | > 10 µM | > 10 µM | > 10 µM
18 | Cc1cn2nc(-c3ccc4c(=O)n([C@H]5CCNC6(CC6)C5)ncc4c3)cc(C)c2n1 [Compound 369, 2-[(7S)-4-azaspiro[2.5]octan-7-yl]-6-{2,8-dimethylimidazo[1,2-b]pyridazin-6-yl}phthalazin-1-one] | < 0.1 µM | < 0.1 µM | < 0.1 µM | < 0.1 µM | 1 to 10 µM | < 0.1 µM

More lines, main results first:

Row | IC50 [1, 5] | IC50 [1, 6] | IC50 [2] | IC50 [3] | GI50 [4] | SMILES | AC50 ([1]; RT-qPCR)
19 | 1 to 10 µM | 1 to 10 µM | < 0.1 µM | > 10 µM | 0.1 to 1 µM | Cc1cn2cc(-c3cc(F)c4c(=O)n([C@@H]5CCNC5)ccc4c3)cc(F)c2n1 (single isomer, unassigned) [Compound 395] | 1 to 10 µM
20 | < 0.1 µM | < 0.1 µM | < 0.1 µM | < 0.1 µM | < 0.1 µM | Cc1cn2nc(-c3cc(F)c4c(=O)n([C@@H]5CCNC6(CC6)C5)ccc4c3)cc(C)c2n1 (single isomer, unassigned) [Compound 425] | < 0.1 µM
21 | 1 to 10 µM | 1 to 10 µM | < 0.1 µM | 1 to 10 µM | 1 to 10 µM | Cc1cn2nc(-c3cc(F)c4c(=O)n(C5CCNC5)ccc4c3)cc(C)c2n1 (stereo in doubt) [Compound 392, (S)-6-(2,8-dimethylimidazo[1,2-b]pyridazin-6-yl)-8-fluoro-2-(pyrrolidin-3-yl)isoquinolin-1(2H)-one] | 1 to 10 µM
22 | < 0.1 µM | < 0.1 µM | < 0.1 µM | < 0.1 µM | < 0.1 µM | Cc1cn2nc(-c3cc(C)c4c(=O)n(C5CCNC6(CC6)C5)ccc4c3)cc(C)c2n1 (stereo in doubt) [Compound 398, (R)-6-(2,8-dimethylimidazo[1,2-b]pyridazin-6-yl)-8-methyl-2-(4-azaspiro[2.5]octan-7-yl)isoquinolin-1(2H)-one] | < 0.1 µM
23 | > 10 µM | > 10 µM | > 10 µM | – | – | Cn1cc2cc(-n3cnc4cc(NC5CCNCC5)ccc4c3=O)ccc2n1 [Compound 162] | > 10 µM
24 | > 10 µM | > 10 µM | 0.1 to 1 µM | > 10 µM | > 10 µM | Cn1cc2c(n1)CCN(c1cc(F)c3c(=O)n(C4CCNCC4)cnc3c1)C2 [Compound 365, 5-fluoro-7-(2-methyl-2,4,6,7-tetrahydro-5H-pyrazolo[4,3-c]pyridin-5-yl)-3-(piperidin-4-yl)quinazolin-4(3H)-one] | > 10 µM
25 | 1 to 10 µM | 1 to 10 µM | 1 to 10 µM | 1 to 10 µM | 1 to 10 µM | Cc1cn2cc(-c3cc(F)c4c(=O)n(C5CCOC5)cnc4c3)cc(C#N)c2n1 (centres unmarked) [Compound 366, 6-[5-fluoro-4-oxo-3-(oxolan-3-yl)quinazolin-7-yl]-2-methylimidazo[1,2-a]pyridine-8-carbonitrile] | 1 to 10 µM
26 | 0.1 to 1 µM | 0.1 to 1 µM | 0.1 to 1 µM | 0.1 to 1 µM | 0.1 to 1 µM | Cc1cn2cc(-c3cc(F)c4c(=O)n(C5CCOCC5)cnc4c3)cc(C#N)c2n1 [Compound 367, 6-[5-fluoro-3-(oxan-4-yl)-4-oxoquinazolin-7-yl]-2-methylimidazo[1,2-a]pyridine-8-carbonitrile] | 0.1 to 1 µM
